± gives the expanded uncertainty stated by the source.
What was measured:
[1] = DTA; for Normal melting temperature: Crystal 1
[2] = Molar enthalpy of transition or fusion; conditions: DSC

Structure (SMILES) | Normal melting temperature [1] [°C] | Molar enthalpy of transition or fusion ([2]; Crystal 1) [kcal/mol] | Triple point temperature ([1]; Crystal 2) [K] | Triple point temperature ([1]; Crystal 3) [K] | Molar enthalpy of transition or fusion ([2]; Crystal 2) [kcal/mol] | Molar enthalpy of transition or fusion ([2]; Crystal 3) [kcal/mol]
CCCCCCCCCCCCCCCCCCCC [eicosane] | 38.5 ± 0.71 | 16.5 ± 0.43 |  |  |  | 
c1ccc2ccccc2c1 [naphthalene] | 81.54 ± 0.71 | 4.67 ± 0.141 |  |  |  | 
CCCCCCCCCCCCCCCCCCCCCCCCCCCCCCCCCCCC [hexatriacontane] | 77.04 ± 0.71 | 19.5 ± 0.502 | 348.28 ± 0.71 | 347.33 ± 0.71 | 5.91 ± 0.172 | 2.8 ± 0.0932
CCCCCCCCCCCCCCCCCCCCCCCCC [pentacosane] | 52.77 ± 0.71 | 13.3 ± 0.359 | 312.9 ± 0.71 | 309 ± 0.71 | 0.256 ± 0.0311 | 5.71 ± 0.167

Reference: the NIST ThermoML archive (doi:10.1016/j.tca.2006.03.011)
